The values that follow come from ChEMBL document CHEMBL5512631, “Research progress of DDR1 inhibitors in the treatment of multiple human diseases” (Eur J Med Chem, 2024).

Values after ≈ are worked out from the molar mass of the structure shown.

Data set [1] addresses T1, Discoidin domain-containing receptor 2 (Homo sapiens, UniProt Q16832).
T1 sequence (Q16832 whole entry): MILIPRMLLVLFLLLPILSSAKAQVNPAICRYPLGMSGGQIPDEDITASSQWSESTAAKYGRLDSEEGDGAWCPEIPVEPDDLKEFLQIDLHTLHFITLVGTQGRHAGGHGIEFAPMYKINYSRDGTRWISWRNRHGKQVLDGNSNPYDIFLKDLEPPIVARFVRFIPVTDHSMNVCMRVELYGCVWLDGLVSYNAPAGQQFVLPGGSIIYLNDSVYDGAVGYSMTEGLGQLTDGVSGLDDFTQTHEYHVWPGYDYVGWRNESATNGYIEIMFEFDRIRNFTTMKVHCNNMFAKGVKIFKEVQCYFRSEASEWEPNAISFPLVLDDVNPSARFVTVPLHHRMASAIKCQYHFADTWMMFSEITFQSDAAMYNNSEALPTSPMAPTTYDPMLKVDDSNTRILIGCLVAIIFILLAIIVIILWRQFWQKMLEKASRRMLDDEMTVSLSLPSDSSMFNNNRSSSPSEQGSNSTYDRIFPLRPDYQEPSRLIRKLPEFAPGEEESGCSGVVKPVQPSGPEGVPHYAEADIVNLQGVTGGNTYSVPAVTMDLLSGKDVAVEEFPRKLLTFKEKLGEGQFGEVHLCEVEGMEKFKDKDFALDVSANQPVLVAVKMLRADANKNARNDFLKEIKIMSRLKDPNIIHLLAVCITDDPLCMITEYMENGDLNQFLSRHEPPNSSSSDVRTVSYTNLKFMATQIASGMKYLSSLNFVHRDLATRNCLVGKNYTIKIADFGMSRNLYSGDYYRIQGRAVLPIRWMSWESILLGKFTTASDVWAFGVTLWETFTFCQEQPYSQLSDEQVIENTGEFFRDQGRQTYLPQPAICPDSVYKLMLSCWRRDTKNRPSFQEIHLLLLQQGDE
The experiment in a line: Inhibition of flag-tagged DDR2 (unknown origin) by TR-FRET assay. For orientation: TR-FRET usually uses a lanthanide donor and a delayed reading to cut background.

Data set [2] addresses Proto-oncogene tyrosine-protein kinase receptor Ret (Homo sapiens) (UniProt P07949). The experiment in a line: Inhibition of RET (unknown origin) at 100 uM using Poly(4:1 Glu, Tyr) as substrate in presence of ATP by absorbance based analysis relative to control.
In data set [3] the target is Receptor-type tyrosine-protein kinase FLT3 (Homo sapiens) (UniProt P36888). Description: Inhibition of FLT3 (unknown origin) at 100 nM relative to control.
Receptor-type tyrosine-protein kinase FLT3 (Homo sapiens), sequence (P36888 whole entry, the tested form may be a part): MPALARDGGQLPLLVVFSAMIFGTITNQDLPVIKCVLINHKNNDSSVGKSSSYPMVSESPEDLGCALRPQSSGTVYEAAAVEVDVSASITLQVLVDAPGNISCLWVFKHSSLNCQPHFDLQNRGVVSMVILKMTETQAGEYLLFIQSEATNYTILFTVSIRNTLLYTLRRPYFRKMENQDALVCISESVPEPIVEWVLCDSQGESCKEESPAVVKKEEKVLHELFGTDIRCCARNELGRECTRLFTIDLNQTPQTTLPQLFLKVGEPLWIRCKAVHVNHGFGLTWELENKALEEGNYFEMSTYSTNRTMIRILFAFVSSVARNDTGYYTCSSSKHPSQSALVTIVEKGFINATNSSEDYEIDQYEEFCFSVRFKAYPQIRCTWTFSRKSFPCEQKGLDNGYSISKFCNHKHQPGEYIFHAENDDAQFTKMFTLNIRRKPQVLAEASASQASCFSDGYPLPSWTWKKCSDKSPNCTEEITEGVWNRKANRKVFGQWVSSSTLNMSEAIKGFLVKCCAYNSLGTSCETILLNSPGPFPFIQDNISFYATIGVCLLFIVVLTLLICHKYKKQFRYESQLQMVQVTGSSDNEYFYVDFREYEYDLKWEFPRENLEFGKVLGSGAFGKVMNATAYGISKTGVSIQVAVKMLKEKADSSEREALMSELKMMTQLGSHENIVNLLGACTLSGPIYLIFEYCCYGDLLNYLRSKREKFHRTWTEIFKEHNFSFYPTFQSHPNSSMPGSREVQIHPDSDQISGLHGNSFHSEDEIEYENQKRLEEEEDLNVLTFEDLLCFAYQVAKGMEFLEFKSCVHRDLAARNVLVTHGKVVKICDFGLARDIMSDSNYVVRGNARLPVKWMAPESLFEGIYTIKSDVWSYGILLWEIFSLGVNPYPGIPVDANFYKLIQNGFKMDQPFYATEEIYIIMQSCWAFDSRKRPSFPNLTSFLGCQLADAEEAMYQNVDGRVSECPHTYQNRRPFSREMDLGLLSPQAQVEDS
The target in data set [4] is T2, Epithelial discoidin domain-containing receptor 1 (Homo sapiens, UniProt Q08345). The experiment in a line: Inhibition of GST-tagged recombinant DDR1 (unknown origin) expressed in Escherichia coli BL21 by DiscoverX KINOMEscan assay.
T2 sequence (Q08345 whole entry, the tested form may be a part): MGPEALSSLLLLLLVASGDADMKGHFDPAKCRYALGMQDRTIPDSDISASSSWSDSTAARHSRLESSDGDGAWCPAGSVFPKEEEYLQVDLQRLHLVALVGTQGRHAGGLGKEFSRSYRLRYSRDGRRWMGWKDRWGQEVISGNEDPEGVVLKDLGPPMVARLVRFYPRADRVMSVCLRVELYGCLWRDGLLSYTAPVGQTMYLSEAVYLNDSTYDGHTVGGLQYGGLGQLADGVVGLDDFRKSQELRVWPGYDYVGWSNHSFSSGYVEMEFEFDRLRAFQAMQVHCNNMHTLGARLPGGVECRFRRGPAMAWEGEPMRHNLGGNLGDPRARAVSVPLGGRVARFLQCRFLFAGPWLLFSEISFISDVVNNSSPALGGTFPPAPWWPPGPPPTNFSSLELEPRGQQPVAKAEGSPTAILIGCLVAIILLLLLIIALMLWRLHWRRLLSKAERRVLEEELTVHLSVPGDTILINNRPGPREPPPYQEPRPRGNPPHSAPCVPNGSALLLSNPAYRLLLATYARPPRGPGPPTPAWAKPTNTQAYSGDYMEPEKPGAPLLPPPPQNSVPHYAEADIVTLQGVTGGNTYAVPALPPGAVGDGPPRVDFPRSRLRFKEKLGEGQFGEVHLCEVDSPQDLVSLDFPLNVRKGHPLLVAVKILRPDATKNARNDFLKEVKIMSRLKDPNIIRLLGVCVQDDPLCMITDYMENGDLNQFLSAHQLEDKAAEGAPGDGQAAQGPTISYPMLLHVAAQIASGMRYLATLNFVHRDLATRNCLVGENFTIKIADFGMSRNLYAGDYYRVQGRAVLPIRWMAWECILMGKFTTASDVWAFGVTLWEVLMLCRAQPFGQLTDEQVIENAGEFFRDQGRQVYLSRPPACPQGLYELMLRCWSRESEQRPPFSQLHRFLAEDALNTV
For data set [5], the target named is T1, Discoidin domain-containing receptor 2. The experiment in a line: Inhibition of GST-tagged recombinant DDR2 (unknown origin) expressed in Escherichia coli BL21 by DiscoverX KINOMEscan assay.
The target is the same in data set [6]. Description: Inhibition of DDR2 (unknown origin) by ADP-Glo assay.
Data set [7] has as its target T2, Epithelial discoidin domain-containing receptor 1. Description: Inhibition of DDR1 (unknown origin) at 10 uM by DiscoverX KINOMEscan assay relative to control.
Data set [8] in a line: Clearance in human liver microsomes measured upto […] by HPLC-MS/MS analysis. In kind it is ADME, Microsome. Background: Microsomes from liver hold many membrane-bound enzymes, among them those of drug oxidation.
The nature of data set [9]: Clearance in C57BL/6 mouse at 1 mg/kg, iv measured upto 8 hrs by HPLC analysis. Format: ADME, organism-based. The conditions noted are these: in vivo.
Data set [10] has as its target T2, Epithelial discoidin domain-containing receptor 1. Description: Inhibition of DDR1 (unknown origin).
The target is the same in data set [11]. The experiment in a line: Binding affinity to DDR1 (unknown origin) assessed as dissociation constant.
The nature of data set [12]: Microsomal stability in rat liver microsomes assessed as intrinsic clearance. In kind it is ADME, Microsome.
In data set [13] the target is T2, Epithelial discoidin domain-containing receptor 1. Description: Inhibition of DDR1 (unknown origin) using Fluorescein-Poly GAT as substrate by TR-FRET analysis.
In data set [14] the target is T1, Discoidin domain-containing receptor 2. The experiment in a line: Inhibition of DDR2 (unknown origin) using Fluorescein-Poly GAT as substrate by TR-FRET analysis.
A further data set relates to U2OS. Description: Antiproliferative activity against human U2OS cells […] assessed as reduction in cell viability incubated for 24 hrs by MTT assay. Format: functional, cell-based. (Tetrazolium assays rely on reduction of a dye to a coloured formazan, in cell work by metabolically active cells.)
Data set [15] in a line: Aqueous solubility of compound in phosphate buffer at pH 6.5. In kind it is physicochemical.
Data set [16] has as its target Vascular endothelial growth factor receptor 2 (Homo sapiens) (UniProt P35968). Description: Inhibition of KDR (unknown origin) at 100 nM by ADP-Glo assay relative to control.
For data set [17], the target named is T1, Discoidin domain-containing receptor 2. The experiment in a line: Inhibition of human DDR2 by discoverX kinome scan assay.
Data set [18] deals with T2, Epithelial discoidin domain-containing receptor 1. The experiment in a line: Inhibition of flag-tagged DDR1 (unknown origin) by TR-FRET assay.
Data set [19] concerns the target Vascular endothelial growth factor receptor 2 (Homo sapiens) (UniProt P35968). Description: Inhibition of KDR (unknown origin) at 100 nM relative to control.

Proto-oncogene tyrosine-protein kinase receptor Ret (Homo sapiens), sequence (P07949 whole entry): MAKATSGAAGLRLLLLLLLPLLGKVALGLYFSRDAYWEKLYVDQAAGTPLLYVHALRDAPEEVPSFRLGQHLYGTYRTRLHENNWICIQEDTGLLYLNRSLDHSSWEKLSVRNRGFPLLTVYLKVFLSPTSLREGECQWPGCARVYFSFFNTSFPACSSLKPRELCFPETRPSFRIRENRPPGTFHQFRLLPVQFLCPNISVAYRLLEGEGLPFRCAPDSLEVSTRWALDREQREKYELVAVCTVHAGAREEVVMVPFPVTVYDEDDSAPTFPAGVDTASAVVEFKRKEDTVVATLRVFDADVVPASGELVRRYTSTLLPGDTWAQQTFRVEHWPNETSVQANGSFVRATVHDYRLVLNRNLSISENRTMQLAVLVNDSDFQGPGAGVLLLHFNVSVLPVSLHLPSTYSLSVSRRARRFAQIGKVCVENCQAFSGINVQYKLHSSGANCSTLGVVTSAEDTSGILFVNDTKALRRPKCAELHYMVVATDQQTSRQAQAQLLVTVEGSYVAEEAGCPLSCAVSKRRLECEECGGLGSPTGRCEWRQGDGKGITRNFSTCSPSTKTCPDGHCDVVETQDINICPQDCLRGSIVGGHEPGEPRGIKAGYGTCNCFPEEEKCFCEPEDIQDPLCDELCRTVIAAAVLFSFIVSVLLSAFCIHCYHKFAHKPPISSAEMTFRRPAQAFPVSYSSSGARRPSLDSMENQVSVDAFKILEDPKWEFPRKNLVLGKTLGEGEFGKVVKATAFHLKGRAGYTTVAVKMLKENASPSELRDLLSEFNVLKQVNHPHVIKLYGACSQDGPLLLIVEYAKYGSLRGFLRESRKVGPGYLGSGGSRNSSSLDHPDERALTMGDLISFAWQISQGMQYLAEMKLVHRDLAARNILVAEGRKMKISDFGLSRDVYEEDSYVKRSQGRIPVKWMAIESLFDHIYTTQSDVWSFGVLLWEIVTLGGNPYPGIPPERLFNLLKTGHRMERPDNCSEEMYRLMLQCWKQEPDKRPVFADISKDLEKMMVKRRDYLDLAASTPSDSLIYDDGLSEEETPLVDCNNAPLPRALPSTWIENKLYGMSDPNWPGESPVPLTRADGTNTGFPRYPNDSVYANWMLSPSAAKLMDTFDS
Vascular endothelial growth factor receptor 2 (Homo sapiens), sequence (P35968 whole entry, the tested form may be a part): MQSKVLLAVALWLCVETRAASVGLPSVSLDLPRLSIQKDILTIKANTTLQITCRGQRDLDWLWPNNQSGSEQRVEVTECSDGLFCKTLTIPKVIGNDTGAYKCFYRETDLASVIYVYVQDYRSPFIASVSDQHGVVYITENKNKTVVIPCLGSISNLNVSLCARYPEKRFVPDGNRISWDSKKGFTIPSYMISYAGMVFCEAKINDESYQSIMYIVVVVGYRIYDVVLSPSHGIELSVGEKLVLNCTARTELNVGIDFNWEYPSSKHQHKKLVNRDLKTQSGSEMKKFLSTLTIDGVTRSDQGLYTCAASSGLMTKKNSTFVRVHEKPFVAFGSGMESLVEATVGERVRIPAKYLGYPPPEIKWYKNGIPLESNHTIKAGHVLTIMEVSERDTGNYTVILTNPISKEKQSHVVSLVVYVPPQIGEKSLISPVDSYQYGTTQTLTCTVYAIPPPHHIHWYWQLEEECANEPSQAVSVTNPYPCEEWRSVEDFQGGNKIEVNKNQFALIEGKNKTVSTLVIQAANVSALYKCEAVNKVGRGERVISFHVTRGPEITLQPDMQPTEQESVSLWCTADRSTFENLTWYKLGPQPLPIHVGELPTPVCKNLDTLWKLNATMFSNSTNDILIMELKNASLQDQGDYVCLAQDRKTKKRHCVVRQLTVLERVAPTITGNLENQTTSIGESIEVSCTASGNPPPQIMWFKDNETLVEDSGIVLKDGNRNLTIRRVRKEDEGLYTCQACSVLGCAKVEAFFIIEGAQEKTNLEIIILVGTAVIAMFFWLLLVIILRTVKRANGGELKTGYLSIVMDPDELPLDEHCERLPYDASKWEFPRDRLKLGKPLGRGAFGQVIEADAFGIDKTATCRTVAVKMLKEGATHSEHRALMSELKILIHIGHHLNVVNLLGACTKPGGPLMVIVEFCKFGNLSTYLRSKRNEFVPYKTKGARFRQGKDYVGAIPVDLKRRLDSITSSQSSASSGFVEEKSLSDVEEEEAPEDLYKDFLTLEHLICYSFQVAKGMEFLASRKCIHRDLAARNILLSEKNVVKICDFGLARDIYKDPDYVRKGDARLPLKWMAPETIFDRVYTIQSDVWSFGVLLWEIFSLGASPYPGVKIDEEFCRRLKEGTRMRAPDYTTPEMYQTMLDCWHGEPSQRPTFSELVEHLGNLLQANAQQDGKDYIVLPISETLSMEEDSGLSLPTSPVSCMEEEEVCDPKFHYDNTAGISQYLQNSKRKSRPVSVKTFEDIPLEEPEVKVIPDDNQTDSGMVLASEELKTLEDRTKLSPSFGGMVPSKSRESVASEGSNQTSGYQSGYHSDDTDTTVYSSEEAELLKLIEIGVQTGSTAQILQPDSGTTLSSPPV

On to `Cc1ccc(C(=O)Nc2cccc(C(F)(F)F)c2)cc1-c1ccc2nc(Nc3cnn(C)c3)ncc2c1`, for which, in data set [1], the IC50 (usually the concentration that gives 50% inhibition) came to 0.0022 µM. Further, the inhibition (commonly the share of the control response that was lost under treatment) in data set [2] worked out at 97.2%; in data set [3] it was 80.3%.

Turning to `O=C(CN1CN(c2ccccc2)C2(CCN(C(=O)c3ccc4[nH]ncc4c3)CC2)C1=O)NCC(F)(F)F`, the IC50 in data set [4] turned out to be 0.015 µM; in [5], 0.82 µM.

In turn, `Cc1ccc(C(=O)Nc2cccc(C(F)(F)F)c2)cc1NCc1cccc(C(N)=O)c1` registered an IC50 in data set [6] of 0.00479 µM.

Take `CCc1cccc2c(/C=C3\NC(=S)N(c4ccc(C)c(C)c4)C3=O)cn(CC(=O)NCCOC)c12`: the inhibition in [7] came out at 70.4%.

As to `CNC(=O)CN1CN(c2ccccc2)C2(CCN(C(=O)c3ccc4[nH]ncc4c3)CC2)C1=O`, the CLH in data set [8] turned out to be 12 µL/min/mg. Further, the clearance (in general, a measure of how efficiently the substance is removed, as volume per time) in data set [9] amounted to 110 mL/min/kg.

`CCc1ccc(C(=O)Nc2cc(CN3CCN(C)CC3)cc(C(F)(F)F)c2)cc1-c1cccc(-c2cnc3ccnn3c2)c1`: in data set [10], the IC50 is 0.0066 µM. The Kd (in general, the constant that tells how readily two partners part at equilibrium) in data set [11] is 0.0022 µM.

Turning to `Cc1ccc(C(=O)Nc2cccc(C(F)(F)F)c2)cc1Nc1cncc(C(N)=O)c1`, the CLint in data set [12] came out at 60 µL/min/mg.

With `Cc1cccc(Cl)c1NC(=O)c1cnc(Nc2cc(N3CCN(C(=O)OCCN4CCOCC4)CC3)ncn2)s1`, the IC50 came out at 0.00226 µM in data set [13] and 0.00704 µM in data set [14].

`O=C(CN1C(=O)C2(CCN(C(=O)c3ccc4[nH]ncc4n3)CC2)c2c(Br)cccc21)NCC(F)(F)F` yielded a CLH in data set [8] of 10 µL/min/mg. Moreover, the clearance in [9] came to 103 mL/min/kg.

In turn, `CC(=O)Nc1ccc(-n2nc3c(=O)[nH]nc(N)c3c2-c2oc3cc(C(=O)Nc4ccccc4C(F)(F)F)ccc3c2C)cc1` registered a concentration for half-maximal inhibition (IC50) in data set [10] of 0.0102 µM.

The compound `Cc1c(-c2c3c(N)n[nH]c(=O)c3nn2-c2ccc(C(N)=O)cc2)oc2cc(C(=O)Nc3ccccc3C(F)(F)F)ccc12` displayed an IC50 in data set [10] of 0.0106 µM.

As to `CCN1CCN(Cc2ccc(C(=O)Nc3ccc(C)c(Oc4ccc5c(c4)CC(=O)N5)c3)cc2C(F)(F)F)CC1`, in the data set with U2OS, the EC50 (as a rule, the concentration at which the effect is half-maximal) came to 0.086 µM.

Regarding `O=C(CN1CN(c2ccccc2)C2(CCN(C(=O)c3ccc4[nH]ncc4n3)CC2)C1=O)NCC(F)(F)F`, the figures for the 50% inhibitory concentration (IC50) in data set [4] and in data set [5] were 0.018 µM and 0.858 µM, respectively. In data set [8], the CLH is 28 µL/min/mg. Besides, the solubility (usually the dissolved amount per volume that the medium holds) in data set [15] came out at 365 µg/mL (≈ 708 µM). In addition, in [9], the clearance is 120 mL/min/kg.

Regarding `Cc1ccc2c(Nc3cccc(C(F)(F)F)c3)noc2c1C#Cc1cn2ncccc2n1`, the IC50 in [4] stood at 0.01 µM.

Turning to `O=C(Cc1ccc(Cl)c(COc2ccccc2)c1)c1cccc(C(F)(F)F)c1`, in [10], 0.0925 µM corresponded to half-maximal inhibition (IC50).

`Cc1cccc(C(=O)N[C@@H](C)c2ccc(C3CC3)c(-c3ccc4nc(Nc5cnn(C6CC6)c5)ncc4c3)c2)c1`: the inhibition in data set [16] turned out to be 24.2%. For the same compound, the midpoint of inhibition in [17], the IC50, lay at 0.031 µM.

Regarding `O=C(Nc1cccc(C(F)(F)F)c1)c1ccc(C2CC2)c(-c2ccc3nc(Nc4cnn(C5CC5)c4)ncc3c2)c1`, 0.0172 µM corresponded to half-maximal inhibition in [18] (IC50). The inhibition in data set [2] stood at 18.6%; in data set [19], 100%.
